Source: patent US20030017567A1, “Biological sample processing methods and compositions that include surfactants” (3M Innovative Properties Company, priority 2001, published 2003)
Marks after values point to notes of the source that are not given here.

How the values were obtained:
Taq polymerase = Taq polymerase (Thermus aquaticus, UniProt P19821); experiment: Quantitative PCR using TaqMan probes or Sybr green; type: biochemical; conditions: with SDA 8080 0.2 mg/mL or 785 WS 0.1 mg/mL, both cases
Taq polymerase, sequence (P19821 whole entry): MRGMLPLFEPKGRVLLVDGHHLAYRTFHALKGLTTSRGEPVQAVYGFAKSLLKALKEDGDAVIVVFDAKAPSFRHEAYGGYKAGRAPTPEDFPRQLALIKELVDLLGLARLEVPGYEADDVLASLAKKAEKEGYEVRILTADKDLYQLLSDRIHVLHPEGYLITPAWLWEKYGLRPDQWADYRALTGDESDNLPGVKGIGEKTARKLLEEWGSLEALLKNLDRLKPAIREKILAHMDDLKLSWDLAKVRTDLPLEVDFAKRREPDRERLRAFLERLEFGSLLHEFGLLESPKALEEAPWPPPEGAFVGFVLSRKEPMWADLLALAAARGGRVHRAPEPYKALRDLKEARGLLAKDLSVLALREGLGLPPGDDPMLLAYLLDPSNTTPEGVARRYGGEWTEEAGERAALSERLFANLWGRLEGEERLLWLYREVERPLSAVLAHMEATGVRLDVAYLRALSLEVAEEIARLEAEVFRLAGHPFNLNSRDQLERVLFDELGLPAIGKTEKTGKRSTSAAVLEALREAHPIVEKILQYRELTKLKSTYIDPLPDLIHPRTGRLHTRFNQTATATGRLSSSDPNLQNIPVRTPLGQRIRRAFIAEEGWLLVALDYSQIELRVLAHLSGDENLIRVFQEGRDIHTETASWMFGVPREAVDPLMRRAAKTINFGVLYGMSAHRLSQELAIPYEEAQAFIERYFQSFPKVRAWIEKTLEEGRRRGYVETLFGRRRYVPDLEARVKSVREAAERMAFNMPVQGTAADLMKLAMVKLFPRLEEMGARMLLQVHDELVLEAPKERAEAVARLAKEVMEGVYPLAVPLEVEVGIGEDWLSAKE

T4 DNA ligase = target: T1, T4 DNA ligase (Enterobacteria phage T4, UniProt P00970); experiment: DNA ligation reaction, read out by E. coli DH10B transformant colonies and by PCR of ligated products; type: biochemical; conditions: 4 wt-% PLURONIC for 785 WS; 4 wt-% TWEEN-20 for SDA 8080; similar number of colonies as control
T1 construct: purchased Life Technologies, Inc, Gaithesburg, Md
T1 sequence (P00970 1-487): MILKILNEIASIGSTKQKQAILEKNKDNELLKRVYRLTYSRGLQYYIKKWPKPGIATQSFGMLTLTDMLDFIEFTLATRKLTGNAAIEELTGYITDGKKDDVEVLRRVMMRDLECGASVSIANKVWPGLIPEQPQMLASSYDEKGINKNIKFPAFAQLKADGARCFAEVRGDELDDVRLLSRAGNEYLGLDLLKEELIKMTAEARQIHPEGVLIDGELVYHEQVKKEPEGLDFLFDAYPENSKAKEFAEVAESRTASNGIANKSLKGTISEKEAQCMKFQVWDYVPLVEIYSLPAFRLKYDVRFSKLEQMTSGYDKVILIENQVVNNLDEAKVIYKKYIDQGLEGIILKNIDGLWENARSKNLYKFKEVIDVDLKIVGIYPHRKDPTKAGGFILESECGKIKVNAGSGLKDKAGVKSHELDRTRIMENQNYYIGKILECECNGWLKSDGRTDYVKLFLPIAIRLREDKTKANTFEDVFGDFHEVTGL
Description: DNA ligation reactions were set up using T4 DNA ligase (Life Technologies, Inc, Gaithesburg, Md.) using a linearized plasmid template (pET21a, Novagen, Madison, Wis.) and a DNA insert. The reagents were used according to manufacturer's instructions. Escherichia coli DH10B competent cells were transformed with the ligated products and transformed cells were plated on Clondisc (Clontech, Palo Alto, Calif.) with appropriate antibiotic (ampicillin at 50 μg/mL). After incubation of plates at 37° C. for 16 hours to 18 hours, the resulting colonies were counted and analysed for plasmid by miniprep and restriction digest. […] In addition, all of the plasmids isolated from these plates contained the same insert as verified by restriction digest and DNA sequencing.
In addition to transformation and plating with the ligation mix, the ligated products were used as DNA template in a PCR reaction containing primers flanking the insert DNA on the plasmid template (T7 promoter and T7 terminator primers, Novagen).

[1] = target: T2, AMPLITAQ DNA polymerase (Taq polymerase) (Thermus aquaticus, UniProt P19821); experiment: PCR amplification of PERV protease fragment (327 bp) in presence of dye/surfactant; product on agarose gel or quantitated with Agilent 2100 Bioanalyzer; type: biochemical
T2 construct: purchased Applied Biosystems, Foster City, Calif
T2 sequence (P19821 whole entry, the tested form may be a part): as the sequence (P19821 whole entry) above
Description: Typically, a fresh stock solution of 5 milligrams (mg) of a water-insoluble near-infrared dye (NIR dye) was dissolved in 50 microliters (μL) of dimethylsulfoxide (DMSO) and brought up in water to a final volume of 1 milliliter (mL). This was then diluted out to various concentrations of dye. The diluted dye (typically 0.2 mg/mL) was then added to a surfactant solution (typically 4 wt-%) to form a complex. The complex was added to a PCR reaction.
PCR reactions were set up for a conserved sequence (327 bp) in the protease region of the genome of porcine endogenous retrovirus using a plasmid containing the PERV protease fragment, a forward primer and a reverse primer designed using a primer express program from Applied Biosystems, and AMPLITAQ DNA polymerase cocktail (commercially available from Applied Biosystems, Foster City, Calif.) and cycled in a thermocycler (9700, Applied Biosystems). The PCR reactions were typically carried out in 25-μL volumes. The NIR dye/surfactant mixture was added to the PCR cocktail to give the desired concentration of dye and surfactant in a total volume of 25 μL. A typical PCR cocktail contains 10x buffer, 2.5 μL; dNTPs, 2.0 μL (200 μM of each); forward primer, 0.5 μL (200 nM); reverse primer, 0.5 μL (200 nM); template DNA, 1.0 (1 ng/μL); Amplitaq, 0.25 μL (1.25 units); sterile water, 18.25 μL.
The products of PCR reactions were run on 1% agarose gel containing ethidium bromide and visualized using an ALPHA IMAGER (Alpha Innotech Corp., San Leandro, Calif.). […] However, a higher concentration of dye (0.1 mg/mL) for effective heating was needed. Thus, for all further PCR experiments, a dye concentration of 0.1 mg/mL or higher was used. […] Taq polymerase was tested from different manufacturers (Promega Corp., Madison, Wis.; Roche Biochemicals, Indianapolis, Ind.; Eppendorf, Scientific Inc., Westbury, N.Y.; Sigma, St. Louis, Mo.) and all the Taq polymerases were inhibited by 785 WS and SDA 8080.
In order to find out the optimum concentration of surfactant for PCR with NIR dye (785 WS and SDA 8080), the surfactant concentration in PCR reaction was varied from 0.1 wt-% to 4 wt-%. The PCR product formed was quantitated using DNA 7500 Labchip kit in Agilent 2100 Bioanalyzer (Agilent Inc, Paloalto, Calif.). The results shown in Table 3 indicate that increasing the concentration of surfactant relative to dye assists in the formation of PCR product.
A variety of dyes (NIR dyes such as IR782, IR768, SDA 2141, SDA8327, IR 830 WS, fluorescent dyes like oligreen and visible dyes like dichlorophenol, indophenol, saffranin, crystal violet, and commercially available food coloring) at typical concentrations of 0.1 or 0.2 mg/mL were allowed to interact with 4 wt-% PLURONIC F127 and each mixture was added to the PCR cocktail. The reaction was set up to amplify PERV protease fragment as described in Example 2 and the products of the reaction were analyzed by agarose gel electrophoresis.

[2] = Laser stability / photobleaching of dye solution on repeated laser exposure; type: physicochemical; conditions: SDA 8080 (0.2 mg/mL), surfactant 20 wt %; 25 exposures
Description: An 813-nm diode laser source at 1.2W (1.9A) (Opto Power Corp., Tucson, Ariz. ) was used to heat a 10μL volume of near-IR dye at a concentration (0.1 mg/mL for 785 WS, 0.2 mg/iL for SDA 8080) to yield a 35° C. rise in temperature. The laser was manually turned on long enough for the temperature in a 10-μL well to increase by 35° C. (1-3 seconds) and was manually turned off when that level was attained. The temperature data was obtained using a thermocouple in the well, and the transmittance data was obtained via a power meter whose signals were digitized and graphically interpreted.
In another experiment, the 10 μL well was used to see if the dye/surfactant mixture could withstand laser cycling over a period of 30 cycles. The laser power was systematically varied from 60° C. to 94° C., 30 times.
Unlike in Example 8, some dyes and dye/surfactant complexes undergo photodegradation when exposed to laser beam. […] Specifically, in the case of 785 WS/BRIJ-97, the addition of ascorbic acid (typically 5 mg/mL) helped reduce the amount of photobleaching from 100% to 20% after 30 cycles. In some circumstances, rapid/controlled photodegradation may be desired. […] This would allow DNA tags (fluorescent or vis/IR) to be monitored at the end of the PCR reaction.
Vitamin E-TPGS has both surfactant as well as antioxidant properties.

CCCCCCCCCCCC(=O)OCCOCCOCCOCCOCCOCCOCCOCCOCCOCCOCCOCCOCCOCCOCCOCCOCCOCCOCCOCCOCC(OCCOCCOCCOCCOCCOCCOCCOCCOCCOCCOCCOCCOCCOCCOCCOCCOCCOCCOCCOCCO)C1OCC(OCCOCCOCCOCCOCCOCCOCCOCCOCCOCCOCCOCCOCCOCCOCCOCCOCCOCCOCCOCCO)C1OCCOCCOCCOCCOCCOCCOCCOCCOCCOCCOCCOCCOCCOCCOCCOCCOCCOCCOCCOCCO (stereo not shown) [TWEEN-20, Polyoxyethylene (20) sorbitan monolaurate]
effect of addition of surfactant on dye-inhibited quantitative PCR assay (Taq polymerase): restored the activity of the assay
effect of surfactant on dye-inhibited ligase activity (colonies) (T4 DNA ligase): restored the activity of ligase
PCR Product ([1]; 785 WS 0.1 mg/mL, surfactant 0.1 wt %): 0 ng/µL
PCR Product ([1]; 785 WS 0.1 mg/mL, surfactant 0.5 wt %): 12.7 ng/µL
PCR Product ([1]; 785 WS 0.1 mg/mL, surfactant 1 wt %): 19 ng/µL
PCR Product ([1]; 785 WS 0.1 mg/mL, surfactant 2 wt %): 23.7 ng/µL
PCR Product ([1]; 785 WS 0.1 mg/mL, surfactant 4 wt %): 24 ng/µL
PCR Product ([1]; SDA 8080 0.2 mg/mL, surfactant 0.1 wt %): 27 ng/µL
PCR Product ([1]; SDA 8080 0.2 mg/mL, surfactant 0.5 wt %): 29 ng/µL
PCR Product ([1]; SDA 8080 0.2 mg/mL, surfactant 1 wt %): 31 ng/µL
PCR Product ([1]; SDA 8080 0.2 mg/mL, surfactant 2 wt %): 22 ng/µL
PCR Product ([1]; SDA 8080 0.2 mg/mL, surfactant 4 wt %): 19 ng/µL
effect of addition of surfactant on dye-inhibited Taq polymerase ([1]; Taq polymerases inhibited by 785 WS and SDA 8080): restored the activity of the enzyme
PCR Product ([1]; surfactant 4 wt %, 785 WS 0 mg/mL (no dye), data from a different experiment under identical PCR conditions): 28* ng/μL
PCR Product ([1]; surfactant 4 wt %, SDA 8080 0 mg/mL (no dye), data from a different experiment under identical PCR conditions): 28* ng/μL
Laser Stability [2]: + (less than a 20% degradation in dye absorbance over a period of 25 exposures)
